US7727961B2, “Antioxidant constituents” (Tokai Bussan Co., Ltd., priority 2004, dated 2010)
Like-named read-outs stand apart in the source and are kept apart here.

What was measured:
[1] = Inhibition of ovalbumin (Ova) oxidative degradation by ClO radical; conditions: for ClO radical inhibitory concentration: concentration that completely inhibits oxidative degradation of protein by 10 mM ClO•; for Inhibitory action toward proteolysis by ClO radical: Ova; for Inhibition effect on degradation of protein due to ClO radical: 30 min, pH 7.2; for Rank of ClO•-scavenging strength (in words): complete inhibition of protein degradation by 10 mM ClO•, comparison of Table 3
Procedure: (§1) ClO•, OH•, and NO3• were prepared as three typical active oxygen species produced in the body. Clo• was prepared using a method wherein sodium hypochlorite was diluted to a pH 6.5 with distilled water, OH• by a partially modified Fenton method (B. Halliwell, et al., Analytical Biochmistry, No. 165, p. 215-219, 1987), and NO3• by a modified quenching flow reactor method (R. Radi, et al., Journal of Biological Chemistry, Vol. 266, p. 4244-4250, 1991). Next, Ova was dissolved in pH 7.2 buffered physiological saline to a concentration of 2.5 mg/mL, each concentration of antioxidant was added at a volume ratio of 10:1 with respect to the protein solution, the solution was let stand for 30 min at room temperature, each concentration of active oxygen was added in the same manner at a volume ratio of 10:1 with respect to protein solution, and ClO• oxidation was performed for 30 min at 37° C., OH• oxidation for 60 min at 37° C., and NO3 oxidation for 120 min at 37° C. After the reaction, sodium dodecylsulfate-polyacrylamide gel electrophoresis (SDS-PAGE) was performed on each sample, the gel was stained with Coomassie blue R250, and the Ova degradation inhibition rate was calculated from the densitometer reading. An accurate degradation inhibition rate was calculated using the following formula from the proteolytic inhibition activity obtained by performing GPC-HPLC using a TSKG-3,000SW column directly on the reacted samples.
(§2) Using the same test methods as described in (1) above, a comparison of inhibitory activity by various natural extracts on the Ova degradation by active oxygen was performed. The concentrations of the natural extracts tested were 5 mg/mL as solids.
The strength of antioxidant activity between peptides with antioxidant activity and sulfur-containing amino acids was compared with respect to ClO•, and between various antioxidants with antioxidant activity with respect to OH•.

[2] = Inhibition of ovalbumin (Ova) oxidative degradation by ONOO radical; conditions: for Inhibitory action toward proteolysis by ONOO radical: Ova; for Inhibition effect on degradation of protein due to ONOO radical: 120 min, pH 7.2; for Concentration that completely inhibited the oxidative effect of ONOO•: 5 mM ONOO•
Procedure: as §1, §2

[3] = Inhibition of ovalbumin (Ova) oxidative degradation by OH radical; conditions: for Inhibitory action toward proteolysis by OH radical: Ova; for OH radical inhibitory concentration: concentration that completely inhibits the proteolytic action of 10 mM OH•; for Inhibition effect on degradation of protein due to OH radical: 60 min, pH 7.2
Procedure: as §1, §2

cholesterol in the blood = conditions: known from the literature (Herrera-Arellano 2004; Kim 2003); cited from earlier work
human red blood cells = assay: Microchannel (MC) transit capability of human red blood cells damaged by active oxygen; assay type: cell-based
Procedure: A microchannel (hereinafter, MC), which is a capillary model, is a device that measures hemorheology, i.e., the capability of blood to circulate through capillaries. Factors affecting hemorheology include meals, oxidative stress, etc. In the present invention the effects of the three active oxygen species produced in the body on the MC transit capability of human red blood cells were tested, and the effectiveness of various antioxidants in preventing the harmful effects of active oxygen were compared.
Next, the effectiveness of various antioxidants in preventing the MC transit damage due to various active oxygen species was measured using red blood cells. […] (2.5 mM) as the ONOO•-scavenger were used. These three types were mixed together and used as the antioxidant mixture.
A microchannel (MC), which is a capillary model, is a device that measures hemorheology, i.e., the capability of blood to circulate through capillaries. Factors effecting hemorheology include meals, oxidative stress, etc. In the present Example, the effects of the three active oxygen species produced in the body on the MC transit capability of human red blood cells were tested.
For the test method, blood from healthy human volunteers was subjected a Ficoll-Pague centrifuge (made by Amersham-Pharmacia Biotech) to separate a red blood cell fraction, and the MC transit time of the red blood (final concentration of hematocrit is 10%) treated by various active oxygen species was measured by an MC FAN KH-3A (channel width 7 μm, MC Laboratory, Inc.).

[4] = tested on: glycated hemoglobin (HbAlc) in the blood; assay: Lowering of glycated hemoglobin in the blood of diabetic model GK rats; assay type: in vivo; conditions: 100 mg/kg orally for 28 days, FIG. 5
Procedure: Using the diabetes model animal GK rats (Y. Ihara, et al. FEBS Letters, Vol. 473, p. 24-26, 2000), the effectiveness of single doses of various antioxidants and combined doses of antioxidants in lowering the level of glycated hemoglobin (HbAlc) in the blood was compared.
As the ClO•-scavenger 200 mg/kg of anserine-carnosine mixture derived from chicken extract, as the OH•-scavenger wheat grass extract (total content of caffeic acid analogues 10 mg/kg), as the ONOO•-scavenger 100 mg/kg of V.C., and a composition containing all three antioxidants were administered orally to the GK rats for 28 days, and the blood HbAlc levels were measured at the end of dosing.

[5] = antioxidant 20 μM, 10 mM ClO radical
[6] = antioxidant 20 μM, 10 mM OH radical
[7] = antioxidant 50 μM, 10 mM ClO radical
[8] = antioxidant 50 μM, 10 mM OH radical
[9] = antioxidant 5 mM, 10 mM ClO radical
[10] = antioxidant 5 mM, 10 mM OH radical

Cn1cncc1C[C@H](NC(=O)CCN)C(=O)O [Anserine, anserine]
ClO radical inhibitory concentration [1]: 5.0 mM

CC1=C(/C=C/C(C)=C/C=C/C(C)=C/C=C/C=C(C)/C=C/C=C(C)/C=C/C2=C(C)C(=O)[C@@H](O)CC2(C)C)C(C)(C)C[C@H](O)C1=O [Astaxanthin, astaxanthin]
Inhibitory action toward proteolysis by ONOO radical ([2]; antioxidant 20 μM): 28% | Inhibitory action toward proteolysis by ClO radical [1, 5]: 24% | Inhibitory action toward proteolysis by OH radical [3, 6]: 100% | OH radical inhibitory concentration [3]: 0.5 µM

CC1=C(/C=C/C(C)=C/C=C/C(C)=C/C=C/C=C(C)/C=C/C=C(C)/C=C/C2=C(C)CCCC2(C)C)C(C)(C)CCC1 [B-carotene, β-carotene]
Concentration showing degradation inhibitory activity against ONOO• [2]: 10 µM | Inhibitory action toward proteolysis by ONOO radical ([2]; antioxidant 20 μM): 74% | Inhibitory action toward proteolysis by ClO radical [1, 5]: 38% | Inhibitory action toward proteolysis by OH radical [3, 6]: 100% | OH radical inhibitory concentration [3]: 0.5 µM

O=C(O)/C=C/c1ccc(O)c(O)c1 [Caffeic acid, caffeic acid]
OH radical inhibitory concentration [3]: 4.0 µM | OH radical inhibitory concentration ([3]; listed as caffeic acid): 2.5 µM

NCCC(=O)N[C@@H](Cc1cnc[nH]1)C(=O)O [Carnosine, carnosine]
ClO radical inhibitory concentration [1]: 5.0 mM

Oc1cc(O)c2c(c1)OC(c1ccc(O)c(O)c1)C(O)C2 (centres unmarked) [Catechins, catechins]
Concentration showing degradation inhibitory activity against ONOO• [2]: 500 µM | Inhibitory action toward proteolysis by ONOO radical ([2]; antioxidant 50 μM): 58% | Inhibitory action toward proteolysis by ClO radical [1, 7]: 0% | Inhibitory action toward proteolysis by OH radical [3, 8]: 100% | OH radical inhibitory concentration [3]: 2.5 µM

O=C(/C=C/c1ccc(O)c(O)c1)O[C@@H]1C[C@](O)(C(=O)O)C[C@@H](O)[C@H]1O [Chlorogenic acid, chlorogenic acid]
Effect of lowering the level of cholesterol in the blood (in words) (cholesterol in the blood): have an effect of lowering the level of cholesterol in the blood

COC1=C(OC)C(=O)C(C/C=C(\C)CC/C=C(\C)CC/C=C(\C)CC/C=C(\C)CC/C=C(\C)CC/C=C(\C)CC/C=C(\C)CC/C=C(\C)CC/C=C(\C)CCC=C(C)C)=C(C)C1=O [CoQ10]
Inhibition effect on degradation of protein due to ONOO radical ([2]; 50 μM): 0 | Inhibition effect on degradation of protein due to ClO radical ([1]; 50 μM): 0 | Inhibition effect on degradation of protein due to OH radical ([3]; 50 μM): 100 | Inhibition of red blood cell MC transit damage due to OH• (human red blood cells; hematocrit 10%, 10 mM OH radical, FIG. 10): inhibited the damage

N[C@@H](CS(=O)(=O)O)C(=O)O [Cysteic acid, cysteic acid]
ClO radical inhibitory concentration [1]: 7.5 mM

N[C@@H](CS)C(=O)O [Cysteine, L-cysteine]
Inhibition effect on degradation of protein due to ONOO radical ([2]; 5 mM): 22 | Inhibition effect on degradation of protein due to ClO radical ([1]; 5 mM): 100 | Rank of ClO•-scavenging strength (in words) [1]: most potent | ClO radical inhibitory concentration [1]: 2.5 mM | Inhibition effect on degradation of protein due to OH radical ([3]; 5 mM): 15

O=C(O[C@@H]1Cc2c(O)cc(O)cc2O[C@@H]1c1cc(O)c(O)c(O)c1)c1cc(O)c(O)c(O)c1 [Epigallocatechin gallate, epigallocatechin gallate]
Concentration showing degradation inhibitory activity against ONOO• ([2]; FIG. 1, said to exceed physiologically relevant concentrations): 500 µM | Inhibition of Ova oxidative degradation by ClO• (in words) ([1]; FIG. 1, 10 mM ClO radical, β-carotene 20 μM, EGCG 500 μM): faint inhibitory activity | Concentration at which oxidative degradation of Ova by OH• was completely inhibited ([3]; FIG. 1, 10 mM OH radical, tested concentration): 5 µM | OH radical inhibitory concentration [3]: 2.5 µM | Inhibition of red blood cell MC transit damage due to OH• (human red blood cells; antioxidant 50 μM, FIG. 4): completely inhibited

COc1cc(/C=C/C(=O)O)ccc1O [Ferulic acid, ferulic acid]
Inhibitory action toward proteolysis by ONOO radical ([2]; antioxidant 50 μM): 34% | Inhibitory action toward proteolysis by ClO radical [1, 7]: 7% | Inhibitory action toward proteolysis by OH radical [3, 8]: 100% | OH radical inhibitory concentration [3]: 2.5 µM | Effect of lowering the level of cholesterol in the blood (in words) (cholesterol in the blood): have an effect of lowering the level of cholesterol in the blood

CSCC[C@H](N)C(=O)O [Methionine, methionine]
Inhibition effect on degradation of protein due to ONOO radical ([2]; 5 mM): 45 | Inhibition effect on degradation of protein due to ClO radical ([1]; 5 mM): 100 | ClO radical inhibitory concentration [1]: 5.0 mM | Inhibition effect on degradation of protein due to OH radical ([3]; 5 mM): 62

CC(=O)N[C@@H](CS)C(=O)O [N-acetyl-L-cysteine]
Inhibition effect on degradation of protein due to ONOO radical ([2]; 5 mM): 20 | Inhibition effect on degradation of protein due to ClO radical ([1]; 5 mM): 100 | Rank of ClO•-scavenging strength (in words) [1]: most potent | ClO radical inhibitory concentration [1]: 2.5 mM | Inhibition effect on degradation of protein due to OH radical ([3]; 5 mM): 20

O=c1c(O)c(-c2ccc(O)c(O)c2)oc2cc(O)cc(O)c12 [Quercetin, quercetin]
Inhibitory action toward proteolysis by ONOO radical ([2]; antioxidant 50 μM): 16% | Inhibitory action toward proteolysis by ClO radical [1, 7]: 5% | Inhibitory action toward proteolysis by OH radical [3, 8]: 100% | OH radical inhibitory concentration [3]: 2.5 µM

N[C@@H](CCC(=O)N[C@@H](CS)C(=O)NCC(=O)O)C(=O)O [Reduced glutathione, reduced glutathione]
Rank of ClO•-scavenging strength (in words) [1]: most potent | ClO radical inhibitory concentration [1]: 2.5 mM

O=C1O[C@H]([C@@H](O)CO)C(O)=C1O [Vitamin C, L-ascorbic acid]
Concentration that completely inhibited the oxidative effect of ONOO• [2]: 1 mM | Inhibitory action toward proteolysis by ONOO radical ([2]; antioxidant 5 mM): 100% | Decrease of blood HbAlc level [4]: 0.3% | Inhibitory action toward proteolysis by ClO radical [1, 9]: 67% | Inhibitory action toward proteolysis by OH radical [3, 10]: 0% | Inhibition of red blood cell MC transit damage due to ONOO• (human red blood cells; hematocrit 10%, 5 mM ONOO radical, FIG. 10): inhibited the damage

Cc1c(C)c2c(c(C)c1O)CC[C@@](C)(CCC[C@H](C)CCC[C@H](C)CCCC(C)C)O2 [Vitamin E, α-tocopherol]
Inhibitory action toward proteolysis by ONOO radical ([2]; antioxidant 5 mM): 22% | Inhibitory action toward proteolysis by ClO radical [1, 9]: 0% | Inhibitory action toward proteolysis by OH radical [3, 10]: 98% | Rank of OH•-scavenging strength (in words) ([3]; complete inhibition of proteolysis by 10 mM OH•, comparison of Table 4): weakest antioxidant activity | OH radical inhibitory concentration [3]: 2500 µM | Antioxidant activity against OH• (inhibition of proteolysis) relative to astaxanthin ([3]; fraction of the activity of the carotenoid astaxanthin): approximately 1/5000

O=C1O[C@H]([C@@H](O)CO)C([O-])=C1O.[Na+] [sodium V.C.]
Concentration that completely inhibited the oxidative effect of ONOO• [2]: 1 mM

alliin
ClO radical inhibitory concentration [1]: 7.5 mM
